Source: article PMC9447987, “Long-term memory CD8^+ T cells specific for SARS-CoV-2 in individuals who received the BNT162b2 mRNA vaccine” (Nature Communications, 2022)

How the values were obtained:
[1] = tested on: HLA-A*24:02-peptide complexes; assay: Peptide–MHC Complex Dissociation Assay using RMA-S-A2402 cells; format: binding, human; settings: for % Mean Fluoresence: Fig.7d; for stability of the HLA-A*24:02-peptide complex (in words): RMA-S-A2402 cells, 10 μM peptide, 0, 1, 2 and 4 h
[2] = molecular target: HLA-A*24:02 (Homo sapiens, UniProt P04439, D101N/D140Y/D185E/E176V/E190D/F33S/G103R/G107R/I119L/I121M/I306V/K335N/L105A/L180Q/L300P/N151K/N90K/Q86E/Q94H/R106L/R138H/R89G/T104I/T345S/V100E/W191G/Y123F); assay: HLA stabilization assay using RMA-S-A2402 cells; format: binding; settings: for MFI, HLA-A2402 (APC), representative staining: RMA-S-A2402 cells, Suppl. Fig. 3d (for Fig. 7c), peptide(-) 11.3, 26 °C (Maximum) 24.0; for affinity for HLA-A*24:02, times weaker than that of S-QI9: approximately, peptide 0.03 to 10 μM
[3] = tested on: HLA-A*24:02-restricted CD8+ T cells; format: cell-based, human
[4] = post-incubation 0 hour, replicate 1
[5] = post-incubation 0 hour, replicate 2
[6] = post-incubation 0 hour, replicate 3
[7] = post-incubation 1 hour, replicate 1
[8] = post-incubation 1 hour, replicate 2
[9] = post-incubation 1 hour, replicate 3
[10] = post-incubation 2 hour, replicate 1
[11] = post-incubation 2 hour, replicate 2
[12] = post-incubation 2 hour, replicate 3
[13] = post-incubation 4 hour, replicate 1
[14] = post-incubation 4 hour, replicate 2
[15] = post-incubation 4 hour, replicate 3
[16] = 13 HLA-A*24:02+ individuals, C1R-A2402 pre-pulsed with 1 nM peptide

Sequence | % Mean Fluoresence [1, 4] [%] | % Mean Fluoresence [1, 5] [%] | % Mean Fluoresence [1, 6] [%] | % Mean Fluoresence [1, 7] [%] | % Mean Fluoresence [1, 8] [%] | % Mean Fluoresence [1, 9] [%] | % Mean Fluoresence [1, 10] [%] | % Mean Fluoresence [1, 11] [%] | % Mean Fluoresence [1, 12] [%] | % Mean Fluoresence [1, 13] [%] | % Mean Fluoresence [1, 14] [%] | % Mean Fluoresence [1, 15] [%] | stability of the HLA-A*24:02-peptide complex (in words) [1] | MFI, HLA-A2402 (APC), representative staining [2] | sensitivity of S-QI9-specific T cells for the peptide compared with the SARS-CoV-2 S-QI9 epitope (in words) [3] | affinity for HLA-A*24:02, times weaker than that of S-QI9 [2] | number of S-QI9-specific T cell populations that effectively recognized the peptide [3, 16] | other results
NYIKWPWWV [NL63] | 100 | 100 | 100 | 18.2 | 44 | 7.4 | -22.6 | 35.4 | -0.6 | 18.3 | -7.8 | 2 | substantially weaker | 16.2 | much lower sensitivity | – | – | affinity for HLA-A*24:02 (in words) [2]: substantially weaker; number of individuals whose S-QI9-specific T cells moderately recognized the peptide [3, 16]: 7; number of individuals whose S-QI9-specific T cells uniformly recognized variant peptide and S-QI9 [3, 16]: 2; number of individuals whose S-QI9-specific bulk T cells exhibited no or very weak recognition [3, 16]: 4
YYVKWPWYV [OC43] | 100 | 100 | 100 | 70.4 | 82.2 | 77.7 | 54.3 | 54.5 | 58.1 | 20.6 | 25.6 | 22 | identical to that of the HLA-A*24:02-S-QI9 peptide complex | 45.9 | higher sensitivity | 10–30 times | 13 | –
MYVKWPWYV [HKU1] | 100 | 100 | 100 | 69.2 | 72.5 | 68.4 | 38.6 | 43 | 37.4 | 12.8 | 14 | 10 | weaker than that of the HLA-A*24:02-S-QI9 peptide complex | 49.8 | higher sensitivity | 10–30 times | 13 | –
